ChEMBL document CHEMBL1127978, “A new hydroxyethylamine class of HIV-1 protease inhibitors with high antiviral potency and oral bioavailability” (Bioorg Med Chem Lett, 1994)

Assays:
[1] = biological target: Human immunodeficiency virus type 1 protease (Human immunodeficiency virus 1, UniProt Q72874); assay: In vitro inhibitory activity against HIV-1 protease was evaluated
[2] = test system: Human immunodeficiency virus 1; assay: Inhibition of viral spread in MT-4 human lymphoid cells infected with the HIV-IIIb isolate; assay type: functional; details: Human immunodeficiency virus 1, lymphoid; read-out: CIC95
[3] = Oral bioavailability in dog; assay type: ADME, organism-based, Canis lupus familiaris; details: in vivo
[4] = Time taken for maximum plasma concentration in dog; assay type: ADME, organism-based, Canis lupus familiaris
[5] = Maximum plasma concentration in dog; assay type: ADME, organism-based, Canis lupus familiaris

CC(C)(C)NC(=O)[C@@H]1CN(CCCc2ccccc2)CCN1C[C@@H](O)[C@H](Cc1ccccc1)NC(=O)O[C@H]1CCOC1
IC50 [1]: 175 nM

Cc1cc(CN2CCN(C[C@@H](O)[C@H](Cc3ccccc3)NC(=O)O[C@@H]3CCS(=O)(=O)[C@@H]3C(C)C)[C@H](C(=O)NC(C)(C)C)C2)cc(Cl)n1
IC95 [2]: 50 nM
bioavailability [3]: 34.8%

CC(C)(C)NC(=O)[C@@H]1CN(Cc2ccccc2O)CCN1C[C@@H](O)[C@H](Cc1ccccc1)NC(=O)O[C@H]1CCOC1
IC50 [1]: 102 nM

CC(C)[C@@H]1[C@H](OC(=O)N[C@@H](Cc2ccccc2)[C@H](O)CN2CCN(Cc3ccc4ccccc4c3)C[C@H]2C(=O)NC(C)(C)C)CCS1(=O)=O
IC95 [2]: 50 nM

CC(C)(C)NC(=O)[C@@H]1CN(CCc2ccccc2)CCN1C[C@@H](O)[C@H](Cc1ccccc1)NC(=O)O[C@H]1CCOC1
IC50 [1]: 478 nM

Cc1ccc(CN2CCN(C[C@@H](O)[C@H](Cc3ccccc3)NC(=O)O[C@@H]3CCS(=O)(=O)[C@@H]3C(C)C)[C@H](C(=O)NC(C)(C)C)C2)cn1
IC95 [2]: 100 nM

CC(C)(C)NC(=O)[C@@H]1CN(C(=O)c2ccncc2)CCN1C[C@@H](O)[C@H](Cc1ccccc1)NC(=O)O[C@H]1CCOC1
IC50 [1]: 132 nM

CC(C)(C)NC(=O)[C@@H]1CN(Cc2ccc(O)cc2)CCN1C[C@@H](O)[C@H](Cc1ccccc1)NC(=O)O[C@H]1CCOC1
IC50 [1]: 153 nM

CC(C)(C)NC(=O)[C@@H]1CN(C(=O)c2cccnc2)CCN1C[C@@H](O)[C@H](Cc1ccccc1)NC(=O)O[C@H]1CCOC1
IC50 [1]: 371 nM

CC(C)(C)NC(=O)[C@@H]1CN(Cc2ccccc2)CCN1C[C@@H](O)[C@H](Cc1ccccc1)NC(=O)O[C@H]1CCOC1
IC50 [1]: 102 nM

CC(C)(C)NC(=O)[C@@H]1CN(C(=O)OCc2ccccc2)CCN1C[C@H](O)[C@H](Cc1ccccc1)NC(=O)O[C@H]1CCOC1
IC50 [1]: 12000 nM

CC(C)(C)NC(=O)[C@@H]1CN(C(=O)OCc2ccccc2)CCN1C[C@@H](O)[C@H](Cc1ccccc1)NC(=O)O[C@H]1CCOC1
IC50 [1]: 18.9 nM

CC(C)[C@@H]1[C@H](OC(=O)N[C@@H](Cc2ccccc2)[C@H](O)CN2CCN(Cc3cccc(O)c3)C[C@H]2C(=O)NC(C)(C)C)CCS1(=O)=O
Tmax [4]: 25 min
Cmax [5]: 4 µM
IC95 [2]: 100 nM

Cc1cc(C)cc(CN2CCN(C[C@@H](O)[C@H](Cc3ccccc3)NC(=O)O[C@@H]3CCS(=O)(=O)[C@@H]3C(C)C)[C@H](C(=O)NC(C)(C)C)C2)c1
IC95 [2]: 100 nM

CC(C)[C@@H]1[C@H](OC(=O)N[C@@H](Cc2ccccc2)[C@H](O)CN2CCN(Cc3cc(Cl)cc(Cl)c3)C[C@H]2C(=O)NC(C)(C)C)CCS1(=O)=O
IC95 [2]: 100 nM

CC(C)(C)NC(=O)[C@@H]1CN(C(=O)c2ccccn2)CCN1C[C@@H](O)[C@H](Cc1ccccc1)NC(=O)O[C@H]1CCOC1
IC50 [1]: 257 nM

CC(C)(C)NC(=O)[C@@H]1CN(Cc2ccccn2)CCN1C[C@@H](O)[C@H](Cc1ccccc1)NC(=O)O[C@H]1CCOC1
IC50 [1]: 957 nM

CC(C)[C@@H]1[C@H](OC(=O)N[C@@H](Cc2ccccc2)[C@H](O)CN2CCN(Cc3ccncc3)C[C@H]2C(=O)NC(C)(C)C)CCS1(=O)=O
Cmax [5]: 6.5 µM
IC95 [2]: 200 nM

CC(C)(C)NC(=O)[C@@H]1CN(Cc2cccc(O)c2)CCN1C[C@@H](O)[C@H](Cc1ccccc1)NC(=O)O[C@H]1CCOC1
IC95 [2]: 400 nM
IC50 [1]: 482 nM

CC(C)(C)NC(=O)[C@@H]1CN(Cc2cccnc2)CCN1C[C@@H](O)[C@H](Cc1ccccc1)NC(=O)O[C@H]1CCOC1
IC95 [2]: 1500 nM
IC50 [1]: 676 nM

CC(C)(C)NC(=O)[C@@H]1CN(C(=O)c2ccccc2)CCN1C[C@@H](O)[C@H](Cc1ccccc1)NC(=O)O[C@H]1CCOC1
IC50 [1]: 414 nM

CC(C)(C)NC(=O)[C@@H]1CN(Cc2ccncc2)CCN1C[C@@H](O)[C@H](Cc1ccccc1)NC(=O)O[C@H]1CCOC1
IC95 [2]: 1500 nM
IC50 [1]: 293 nM
